Measured values as given in ChEMBL document CHEMBL1201862, “PubChem BioAssay data set” (2004).
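How tested: cells in 96-well plates exposed to compound for 48 hours at five concentrations. GI50 marks 50% less growth.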 Activity calls are given as the source filed them. Cut-off read from the data, not from the text of the source: active = GI50 up to about 1.1 µM and inactive = higher.

How the values were obtained:
Test in all cases: inhibition of tumour cell growth, NCI panel, 48 h
[1] = tested on: LXFL 529
[2] = tested on: RXF 631
[3] = tested on: DMS-273
[4] = tested on: SNB-78
[5] = tested on: DLD-1
[6] = tested on: XF498
[7] = tested on: DMS-114
[8] = tested on: KM-20L2
[9] = tested on: HOP-18

N#C/C(=C\c1cc(O)c(O)c(O)c1)C(N)=O
GI50 [1]: > 100 µM (inactive) | GI50 [2]: > 100 µM (inactive) | GI50 [3]: > 100 µM (inactive) | GI50 [4]: > 100 µM (inactive) | GI50 [5]: > 100 µM (inactive) | GI50 [6]: > 100 µM (inactive) | GI50 [7]: > 100 µM (inactive) | GI50 [8]: 74.1 µM (inactive)

CCN1CCC(O)(c2ccccc2)C(C(=O)c2ccccc2)C1 (stereo not given)
GI50 [1]: 15.6 µM (inactive) | GI50 [3]: > 94.4 µM (inactive) | GI50 [9]: 14.7 µM (inactive) | GI50 [4]: 26.7 µM (inactive) | GI50 [5]: 19.4 µM (inactive) | GI50 [6]: 16.3 µM (inactive) | GI50 [7]: 29.9 µM (inactive) | GI50 [8]: 32 µM (inactive)

S=c1sc2sc(=S)sc2s1
GI50 [1]: 13.6 µM (inactive) | GI50 [2]: 18.7 µM (inactive) | GI50 [3]: > 100 µM (inactive) | GI50 [9]: > 100 µM (inactive) | GI50 [4]: 54.5 µM (inactive) | GI50 [5]: 37.1 µM (inactive) | GI50 [8]: 70.3 µM (inactive)

NCC1(N2CCOCC2)C2CCCC21CNc1ccccc1 (stereo not given)
GI50 [1]: > 100 µM (inactive) | GI50 [2]: > 100 µM (inactive) | GI50 [3]: > 100 µM (inactive) | GI50 [9]: > 100 µM (inactive) | GI50 [4]: > 100 µM (inactive) | GI50 [5]: > 100 µM (inactive) | GI50 [6]: 69.8 µM (inactive) | GI50 [7]: > 100 µM (inactive)

Cc1cc2c(=O)c(C)n[nH]c2c(C#N)c1C
GI50 [1]: > 100 µM (inactive) | GI50 [2]: > 100 µM (inactive) | GI50 [3]: > 100 µM (inactive) | GI50 [9]: > 100 µM (inactive) | GI50 [5]: > 100 µM (inactive) | GI50 [6]: > 100 µM (inactive) | GI50 [8]: > 100 µM (inactive)

CSC1=Nc2ccccc2N=C(c2ccc(Cl)cc2)C1
GI50 [1]: 45 µM (inactive) | GI50 [9]: 0.0877 µM (active) | GI50 [4]: 52.5 µM (inactive) | GI50 [5]: 25.9 µM (inactive) | GI50 [6]: 36.5 µM (inactive) | GI50 [8]: 35.5 µM (inactive)

C/C(=N\NC(=S)N1CCC1)c1ccccn1
GI50 [1]: 0.01 µM (active) | GI50 [2]: < 0.0262 µM (active) | GI50 [3]: 0.01 µM (active) | GI50 [9]: 0.929 µM (active) | GI50 [4]: 2.2 µM (inactive) | GI50 [5]: 0.01 µM (active) | GI50 [6]: 0.457 µM (active) | GI50 [7]: 0.01 µM (active) | GI50 [8]: 0.01 µM (active)

C=C(C#N)C1OCC2OC(C)(C)OC21 (stereo not given)
GI50 [2]: 20.9 µM (inactive) | GI50 [3]: 19.1 µM (inactive) | GI50 [9]: 24.7 µM (inactive) | GI50 [4]: 19.7 µM (inactive) | GI50 [5]: 17.1 µM (inactive) | GI50 [7]: 22.7 µM (inactive)

CC1=NN(C(=O)CC(=O)Nc2ccccc2F)C(=O)C1/N=N/c1ccccc1[N+](=O)[O-] (stereo not given)
GI50 [1]: > 100 µM (inactive) | GI50 [3]: 49.9 µM (inactive) | GI50 [4]: 87.3 µM (inactive) | GI50 [5]: 83 µM (inactive) | GI50 [6]: > 100 µM (inactive) | GI50 [7]: 57.9 µM (inactive) | GI50 [8]: > 100 µM (inactive)

C=C1CN2CCc3c([nH]c4ccccc34)C2CC1CC(=O)N(C)C (stereo not given)
GI50 [1]: > 309 µM (inactive) | GI50 [3]: > 309 µM (inactive) | GI50 [9]: > 309 µM (inactive) | GI50 [5]: > 309 µM (inactive) | GI50 [6]: > 309 µM (inactive) | GI50 [7]: > 309 µM (inactive) | GI50 [8]: > 309 µM (inactive)

CN(C)/C(=N/C(=O)Nc1ccccc1)SCc1ccccc1
GI50 [1]: > 100 µM (inactive) | GI50 [3]: > 100 µM (inactive) | GI50 [9]: 64.9 µM (inactive) | GI50 [4]: > 100 µM (inactive) | GI50 [5]: 65.3 µM (inactive) | GI50 [6]: 6.43 µM (inactive) | GI50 [7]: 67.5 µM (inactive)

O=C(O)CC12C3C4C5C3C1C5C42 (stereo not given)
GI50 [1]: > 100 µM (inactive) | GI50 [3]: > 100 µM (inactive) | GI50 [4]: > 100 µM (inactive) | GI50 [5]: > 100 µM (inactive) | GI50 [6]: > 100 µM (inactive) | GI50 [7]: > 100 µM (inactive) | GI50 [8]: > 100 µM (inactive)

CN(C)CC1CCC(CN(C)C)C1=O (stereo not given)
GI50 [1]: 1.47 µM (inactive) | GI50 [3]: 17.1 µM (inactive) | GI50 [9]: 18.8 µM (inactive) | GI50 [4]: 5.83 µM (inactive) | GI50 [5]: 2.05 µM (inactive) | GI50 [6]: 5.69 µM (inactive) | GI50 [7]: 5.92 µM (inactive) | GI50 [8]: 17.4 µM (inactive)

CCCCCCCCCCCCCC1CCC(CC)N1 (stereo not given)
GI50 [1]: 18.2 µM (inactive) | GI50 [3]: 14.5 µM (inactive) | GI50 [9]: 17.1 µM (inactive) | GI50 [4]: 13 µM (inactive) | GI50 [5]: 14.9 µM (inactive) | GI50 [7]: 7 µM (inactive) | GI50 [8]: 13.3 µM (inactive)

CC(=O)OC1COC(n2ccc3cc(Br)c([N+](=O)[O-])cc32)C(OC(C)=O)C1OC(C)=O (stereo not given)
GI50 [1]: 20 µM (inactive) | GI50 [2]: 23.7 µM (inactive) | GI50 [3]: 29.9 µM (inactive) | GI50 [9]: > 10 µM (inactive) | GI50 [4]: 20.8 µM (inactive) | GI50 [5]: 44.3 µM (inactive) | GI50 [6]: 14.3 µM (inactive) | GI50 [7]: 27.7 µM (inactive) | GI50 [8]: 31 µM (inactive)

CC1(Cl)C(=O)NC(=O)N(C2CC(N=[N+]=[N-])C(CO)O2)C1N=[N+]=[N-] (stereo not given)
GI50 [1]: > 100 µM (inactive) | GI50 [2]: > 100 µM (inactive) | GI50 [3]: > 100 µM (inactive) | GI50 [5]: > 100 µM (inactive) | GI50 [6]: > 100 µM (inactive) | GI50 [7]: > 100 µM (inactive) | GI50 [8]: > 100 µM (inactive)

CCOC(=O)C(CNc1ccc(O)cc1)NC(=O)c1ccccc1 (stereo not given)
GI50 [1]: 77.3 µM (inactive) | GI50 [3]: 65 µM (inactive) | GI50 [9]: > 100 µM (inactive) | GI50 [4]: > 100 µM (inactive) | GI50 [5]: > 100 µM (inactive) | GI50 [6]: > 100 µM (inactive) | GI50 [7]: > 79.8 µM (inactive) | GI50 [8]: > 100 µM (inactive)

CC(=O)/C(=C\c1ccco1)C(=O)Nc1ccccc1
GI50 [1]: > 100 µM (inactive) | GI50 [9]: > 100 µM (inactive) | GI50 [4]: > 100 µM (inactive) | GI50 [5]: > 100 µM (inactive) | GI50 [6]: > 100 µM (inactive) | GI50 [7]: > 100 µM (inactive)

Cc1ccc(C(=O)Oc2ccccc2)cc1/N=N/N(C)C
GI50 [1]: > 100 µM (inactive) | GI50 [3]: 61.9 µM (inactive) | GI50 [4]: > 100 µM (inactive) | GI50 [5]: > 100 µM (inactive) | GI50 [8]: 38.3 µM (inactive)

O=C/C1=C/C2=Cc3ccccc3C=C(/C=C(/C=O)C1)C2
GI50 [1]: 30.3 µM (inactive) | GI50 [3]: 34.2 µM (inactive) | GI50 [4]: 52.7 µM (inactive) | GI50 [5]: 38.4 µM (inactive) | GI50 [6]: 54.5 µM (inactive) | GI50 [7]: 38.3 µM (inactive) | GI50 [8]: > 100 µM (inactive)

Cc1c2cc[n+](C)cc2c(C)c2c1oc1ccccc12
GI50 [1]: 1.54 µM (inactive) | GI50 [3]: 3.57 µM (inactive) | GI50 [9]: 6.82 µM (inactive) | GI50 [4]: 4.02 µM (inactive) | GI50 [5]: 8.57 µM (inactive) | GI50 [7]: 1.31 µM (inactive) | GI50 [8]: 9.98 µM (inactive)

O=C1C=C2S[C@H]3C[C@]2(C=C1Br)C1=C(N3)C(=O)c2[nH]cc3c2C1=NCC3 [(+)-DISCORHABDIN B]
GI50 [1]: 0.19 µM (active) | GI50 [3]: 1.17 µM (inactive) | GI50 [9]: 1.78 µM (inactive) | GI50 [4]: 1.78 µM (inactive) | GI50 [5]: 0.617 µM (active) | GI50 [6]: 1.42 µM (inactive) | GI50 [8]: 0.463 µM (active)

CO[C@@H]1C=C[C@@]23c4cc5c(cc4CN(C[C@@H]2O)[C@H]3C1)OCO5 [(+)-HAEMANTHAMINE]
GI50 [1]: 13.6 µM (inactive) | GI50 [9]: 21.8 µM (inactive) | GI50 [4]: 52.5 µM (inactive) | GI50 [5]: 15.3 µM (inactive) | GI50 [6]: 16.7 µM (inactive) | GI50 [7]: 79.6 µM (inactive) | GI50 [8]: 11.7 µM (inactive)

C[C@H]1C[C@@H]2[C@H]([C@@H](O)C[C@@]3(C)[C@H]2CC[C@]3(O)C(=O)CO)[C@@]2(C)C=CC(=O)C=C12 [METHYLPREDNISOLONE]
GI50 [3]: > 100 µM (inactive) | GI50 [9]: > 100 µM (inactive) | GI50 [5]: > 100 µM (inactive) | GI50 [7]: > 100 µM (inactive) | GI50 [8]: > 100 µM (inactive)
